From patent publication US9326506B2, “Preparation method, agricultural composition and applications of natural brassinolide analogs” (CHENGDU NEWSUN CROPSCIENCE CO., LTD, priority 2012, dated 2016)

Tested on: rice
Experiment: Low temperature assay on rice seedlings
Assay type: in vivo
Experimental: According to a low temperature assay, we measured parameters including plant height, number of leaf, area of leaf, number of tiller, weight of root at low temperature to completely determine effects of the natural brassinolide analogues on the resistance to low temperature of a plant.
The natural brassinolide analogues, BR1, BR2, BR3, BR4, BR5 and BR6, used herein, were those prepared by the method of Example 1. Respectively the analogues were dissolved into 95% (V/V) ethanol solution, and then diluted with pure water to 1 mg/L, 0.1 mg/L, 0.01 mg/L, 0.001 mg/L and 0.0001 mg/L. In addition, pure water was used as a control.
After rice seeds were disinfected by using 5% sodium hypochlorite solution treatment, they were rinsed with distilled water until their pH>7, placed into a petri dish in a dark incubator, and cultured by using water at 30° C.±2° C. for 9 days. Then respectively the nine-day-old etiolated seedlings of rice were immersed in the above solutions containing different concentrations of the natural brassinolide analogues or pure water, and cultured at the temperature of 1° C., 2° C., 3° C., 4° C. and 5° C. for 24 hr. The parameters including plant height, area of leaf and weight of root after 3, 6, 9 and 12 days and number of leaf and number of tiller after 12 days were measured.

Compound: CC[C@@H](C(C)C)[C@@H](O)[C@H](O)[C@@H](C)[C@H]1CCC2C3COC(=O)C4C[C@H](O)[C@H](O)C[C@]4(C)C3CC[C@@]21C (stereo partly shown) [BR2]
- Height (0.01 mg/l, 3 °C, 9 days): 7.7 cm
- Weight of root (0.01 mg/l, 3 °C, 9 days): 2.9 g
- Area of leaf (0.01 mg/l, 3 °C, 12 days): 13.2 cm^2
- Height (0.01 mg/l, 3 °C, 12 days): 7.9 cm
- Number of leaf (0.01 mg/l, 3 °C, 12 days): 3
- Number of tiller (0.01 mg/l, 3 °C, 12 days): 2
- Weight of root (0.01 mg/l, 3 °C, 12 days): 2.9 g
- Area of leaf (0.01 mg/l, 4 °C, 3 days): 10.8 cm^2
- Height (0.01 mg/l, 4 °C, 3 days): 7.1 cm
- Weight of root (0.01 mg/l, 4 °C, 3 days): 2.5 g
- Area of leaf (0.01 mg/l, 4 °C, 6 days): 12.4 cm^2
- Height (0.01 mg/l, 4 °C, 6 days): 7.5 cm
- Weight of root (0.01 mg/l, 4 °C, 6 days): 2.6 g
- Area of leaf (0.01 mg/l, 4 °C, 9 days): 13.2 cm^2
- Height (0.01 mg/l, 4 °C, 9 days): 7.7 cm
- Weight of root (0.01 mg/l, 4 °C, 9 days): 2.9 g
- Area of leaf (0.01 mg/l, 4 °C, 12 days): 13.5 cm^2
- Height (0.01 mg/l, 4 °C, 12 days): 7.8 cm
- Number of leaf (0.01 mg/l, 4 °C, 12 days): 3
- Number of tiller (0.01 mg/l, 4 °C, 12 days): 2
- Weight of root (0.01 mg/l, 4 °C, 12 days): 3.0 g
- Area of leaf (0.01 mg/l, 5 °C, 3 days): 10.3 cm^2
- Height (0.01 mg/l, 5 °C, 3 days): 7.4 cm
- Weight of root (0.01 mg/l, 5 °C, 3 days): 2.8 g
- Area of leaf (0.01 mg/l, 5 °C, 6 days): 13.1 cm^2
- Height (0.01 mg/l, 5 °C, 6 days): 7.6 cm
- Weight of root (0.01 mg/l, 5 °C, 6 days): 3.0 g
- Area of leaf (0.01 mg/l, 5 °C, 9 days): 16.4 cm^2
- Height (0.01 mg/l, 5 °C, 9 days): 8 cm
- Weight of root (0.01 mg/l, 5 °C, 9 days): 3.4 g
- Area of leaf (0.01 mg/l, 5 °C, 12 days): 17 cm^2
- Height (0.01 mg/l, 5 °C, 12 days): 8.2 cm
- Number of leaf (0.01 mg/l, 5 °C, 12 days): 4
- Number of tiller (0.01 mg/l, 5 °C, 12 days): 3
- Weight of root (0.01 mg/l, 5 °C, 12 days): 3.9 g
- Area of leaf (0.1 mg/l, 1 °C, 3 days): 10.1 cm^2
- Height (0.1 mg/l, 1 °C, 3 days): 7.0 cm
- Weight of root (0.1 mg/l, 1 °C, 3 days): 2.8 g
- Area of leaf (0.1 mg/l, 1 °C, 6 days): 11 cm^2
- Height (0.1 mg/l, 1 °C, 6 days): 7.2 cm
- Weight of root (0.1 mg/l, 1 °C, 6 days): 3.0 g
- Area of leaf (0.1 mg/l, 1 °C, 9 days): 12.1 cm^2
- Height (0.1 mg/l, 1 °C, 9 days): 7.3 cm
- Weight of root (0.1 mg/l, 1 °C, 9 days): 3.4 g
- Area of leaf (0.1 mg/l, 1 °C, 12 days): 13.4 cm^2
- Height (0.1 mg/l, 1 °C, 12 days): 7.4 cm
- Number of leaf (0.1 mg/l, 1 °C, 12 days): 3
- Number of tiller (0.1 mg/l, 1 °C, 12 days): 3
- Weight of root (0.1 mg/l, 1 °C, 12 days): 3.6 g
- Area of leaf (0.1 mg/l, 2 °C, 3 days): 10.4 cm^2
- Height (0.1 mg/l, 2 °C, 3 days): 7.1 cm
- Weight of root (0.1 mg/l, 2 °C, 3 days): 2.8 g
- Area of leaf (0.1 mg/l, 2 °C, 6 days): 11.2 cm^2
- Height (0.1 mg/l, 2 °C, 6 days): 7.3 cm
- Weight of root (0.1 mg/l, 2 °C, 6 days): 3.0 g
- Area of leaf (0.1 mg/l, 2 °C, 9 days): 12.6 cm^2
- Height (0.1 mg/l, 2 °C, 9 days): 7.3 cm
- Weight of root (0.1 mg/l, 2 °C, 9 days): 3.1 g
- Area of leaf (0.1 mg/l, 2 °C, 12 days): 13.6 cm^2
- Height (0.1 mg/l, 2 °C, 12 days): 7.4 cm
- Number of leaf (0.1 mg/l, 2 °C, 12 days): 3
- Number of tiller (0.1 mg/l, 2 °C, 12 days): 3
- Weight of root (0.1 mg/l, 2 °C, 12 days): 3.2 g
- Area of leaf (0.1 mg/l, 3 °C, 3 days): 10.5 cm^2
- Height (0.1 mg/l, 3 °C, 3 days): 7.4 cm
- Weight of root (0.1 mg/l, 3 °C, 3 days): 2.5 g
- Area of leaf (0.1 mg/l, 3 °C, 6 days): 12 cm^2
- Height (0.1 mg/l, 3 °C, 6 days): 7.4 cm
- Weight of root (0.1 mg/l, 3 °C, 6 days): 2.7 g
- Area of leaf (0.1 mg/l, 3 °C, 9 days): 12.6 cm^2
- Height (0.1 mg/l, 3 °C, 9 days): 7.8 cm
- Weight of root (0.1 mg/l, 3 °C, 9 days): 2.9 g
- Area of leaf (0.1 mg/l, 3 °C, 12 days): 13.4 cm^2
- Height (0.1 mg/l, 3 °C, 12 days): 7.9 cm
- Number of leaf (0.1 mg/l, 3 °C, 12 days): 3
- Number of tiller (0.1 mg/l, 3 °C, 12 days): 2
- Weight of root (0.1 mg/l, 3 °C, 12 days): 2.9 g
- Area of leaf (0.1 mg/l, 4 °C, 3 days): 10.8 cm^2
- Height (0.1 mg/l, 4 °C, 3 days): 7.5 cm
- Weight of root (0.1 mg/l, 4 °C, 3 days): 2.5 g
- Area of leaf (0.1 mg/l, 4 °C, 6 days): 12.1 cm^2
- Height (0.1 mg/l, 4 °C, 6 days): 7.5 cm
- Weight of root (0.1 mg/l, 4 °C, 6 days): 2.7 g
- Area of leaf (0.1 mg/l, 4 °C, 9 days): 13.4 cm^2
- Height (0.1 mg/l, 4 °C, 9 days): 8 cm
- Weight of root (0.1 mg/l, 4 °C, 9 days): 2.9 g
- Area of leaf (0.1 mg/l, 4 °C, 12 days): 13.8 cm^2
- Height (0.1 mg/l, 4 °C, 12 days): 8.1 cm
- Number of leaf (0.1 mg/l, 4 °C, 12 days): 3
- Number of tiller (0.1 mg/l, 4 °C, 12 days): 2
- Weight of root (0.1 mg/l, 4 °C, 12 days): 3.1 g
- Area of leaf (0.1 mg/l, 5 °C, 3 days): 11 cm^2
- Height (0.1 mg/l, 5 °C, 3 days): 7.5 cm
- Weight of root (0.1 mg/l, 5 °C, 3 days): 2.9 g
- Area of leaf (0.1 mg/l, 5 °C, 6 days): 12.9 cm^2
- Height (0.1 mg/l, 5 °C, 6 days): 7.6 cm
- Weight of root (0.1 mg/l, 5 °C, 6 days): 3.2 g
- Area of leaf (0.1 mg/l, 5 °C, 9 days): 16.8 cm^2
- Height (0.1 mg/l, 5 °C, 9 days): 8.1 cm
- Weight of root (0.1 mg/l, 5 °C, 9 days): 3.5 g
- Area of leaf (0.1 mg/l, 5 °C, 12 days): 19 cm^2
- Height (0.1 mg/l, 5 °C, 12 days): 8.3 cm
- Number of leaf (0.1 mg/l, 5 °C, 12 days): 3
- Number of tiller (0.1 mg/l, 5 °C, 12 days): 2
- Weight of root (0.1 mg/l, 5 °C, 12 days): 4.1 g
- Area of leaf (1 mg/l, 1 °C, 3 days): 10 cm^2
- Height (1 mg/l, 1 °C, 3 days): 7.2 cm
- Weight of root (1 mg/l, 1 °C, 3 days): 2.6 g
- Area of leaf (1 mg/l, 1 °C, 6 days): 11.2 cm^2
- Height (1 mg/l, 1 °C, 6 days): 7.3 cm
- Weight of root (1 mg/l, 1 °C, 6 days): 3.1 g
- Area of leaf (1 mg/l, 1 °C, 9 days): 12.4 cm^2
- Height (1 mg/l, 1 °C, 9 days): 7.3 cm
- Weight of root (1 mg/l, 1 °C, 9 days): 3.2 g
- Area of leaf (1 mg/l, 1 °C, 12 days): 13 cm^2
- Height (1 mg/l, 1 °C, 12 days): 7.9 cm
- Number of leaf (1 mg/l, 1 °C, 12 days): 3
- Number of tiller (1 mg/l, 1 °C, 12 days): 3
- Weight of root (1 mg/l, 1 °C, 12 days): 3.7 g
- Area of leaf (1 mg/l, 2 °C, 3 days): 10.2 cm^2
- Height (1 mg/l, 2 °C, 3 days): 7.2 cm
- Weight of root (1 mg/l, 2 °C, 3 days): 2.6 g
- Area of leaf (1 mg/l, 2 °C, 6 days): 11.7 cm^2
- Height (1 mg/l, 2 °C, 6 days): 7.2 cm
- Weight of root (1 mg/l, 2 °C, 6 days): 3.0 g
- Area of leaf (1 mg/l, 2 °C, 9 days): 12.6 cm^2
- Height (1 mg/l, 2 °C, 9 days): 7.3 cm
- Weight of root (1 mg/l, 2 °C, 9 days): 3.2 g
- Area of leaf (1 mg/l, 2 °C, 12 days): 13 cm^2
- Height (1 mg/l, 2 °C, 12 days): 8 cm
- Number of leaf (1 mg/l, 2 °C, 12 days): 3
- Number of tiller (1 mg/l, 2 °C, 12 days): 3
- Weight of root (1 mg/l, 2 °C, 12 days): 3.7 g
- Area of leaf (1 mg/l, 3 °C, 3 days): 10.4 cm^2
- Height (1 mg/l, 3 °C, 3 days): 7.4 cm
- Weight of root (1 mg/l, 3 °C, 3 days): 2.5 g
- Area of leaf (1 mg/l, 3 °C, 6 days): 12 cm^2
- Height (1 mg/l, 3 °C, 6 days): 7.5 cm
- Weight of root (1 mg/l, 3 °C, 6 days): 2.6 g
- Area of leaf (1 mg/l, 3 °C, 9 days): 12.1 cm^2
- Height (1 mg/l, 3 °C, 9 days): 7.9 cm
- Weight of root (1 mg/l, 3 °C, 9 days): 2.9 g
- Area of leaf (1 mg/l, 3 °C, 12 days): 13.2 cm^2
- Height (1 mg/l, 3 °C, 12 days): 8.1 cm
- Number of leaf (1 mg/l, 3 °C, 12 days): 3
- Number of tiller (1 mg/l, 3 °C, 12 days): 2
- Weight of root (1 mg/l, 3 °C, 12 days): 2.9 g
- Area of leaf (1 mg/l, 4 °C, 3 days): 10.9 cm^2
- Height (1 mg/l, 4 °C, 3 days): 7.4 cm
- Weight of root (1 mg/l, 4 °C, 3 days): 2.5 g
- Area of leaf (1 mg/l, 4 °C, 6 days): 12.6 cm^2
- Height (1 mg/l, 4 °C, 6 days): 7.5 cm
- Weight of root (1 mg/l, 4 °C, 6 days): 2.7 g
- Area of leaf (1 mg/l, 4 °C, 9 days): 13.2 cm^2
- Height (1 mg/l, 4 °C, 9 days): 8.0 cm
- Weight of root (1 mg/l, 4 °C, 9 days): 3.0 g
- Area of leaf (1 mg/l, 4 °C, 12 days): 14 cm^2
- Height (1 mg/l, 4 °C, 12 days): 8.2 cm
- Number of leaf (1 mg/l, 4 °C, 12 days): 3
- Number of tiller (1 mg/l, 4 °C, 12 days): 2
- Weight of root (1 mg/l, 4 °C, 12 days): 3.2 g
- Area of leaf (1 mg/l, 5 °C, 3 days): 11.1 cm^2
- Height (1 mg/l, 5 °C, 3 days): 7.4 cm
- Weight of root (1 mg/l, 5 °C, 3 days): 2.9 g
- Area of leaf (1 mg/l, 5 °C, 6 days): 13.1 cm^2
- Height (1 mg/l, 5 °C, 6 days): 7.7 cm
- Weight of root (1 mg/l, 5 °C, 6 days): 3.5 g
- Area of leaf (1 mg/l, 5 °C, 9 days): 18 cm^2
- Height (1 mg/l, 5 °C, 9 days): 8.2 cm
- Weight of root (1 mg/l, 5 °C, 9 days): 3.7 g
- Area of leaf (1 mg/l, 5 °C, 12 days): 20 cm^2
- Height (1 mg/l, 5 °C, 12 days): 8.4 cm
- Number of leaf (1 mg/l, 5 °C, 12 days): 3
- Number of tiller (1 mg/l, 5 °C, 12 days): 2
- Weight of root (1 mg/l, 5 °C, 12 days): 4.5 g
